From patent US8435752B2, “Gene polymorphisms predictive for dual TKI therapy” (University of Southern California, priority 2007, dated 2013)
Like-named read-outs stand apart in the source and are kept apart here.

Test system: advanced or metastatic gastric cancer patients
Details: for median OS: Experiment No. 1, p=0.07; for OS / response rates: Experiment No. 2; for OS: p=0.04; for response rates: p<0.01

## CS(=O)(=O)CCNCc1ccc(-c2ccc3ncnc(Nc4ccc(OCc5cccc(F)c5)c(Cl)c4)c3c2)o1 [lapatinib, Lapatinib]
A/A genotype of IL-8 T251A polymorphism, blood samples from 40 patients
  median OS: 10 months
First listed of the other 2 genotypes of IL-8 T251A
  median OS: 3 months
Second listed of the other 2 genotypes of IL-8 T251A
  median OS: 3 months
IL-8 T251A A/A, blood samples from 42 patients
  OS: 10 months
IL-8 T251A T/A
  OS: 5 months
IL-8 T251A T/T
  OS: 3 months
Patients with A allele of IL-8 T251A
  response rates: better response rates
Patients with T allele of VEGF C936T
  response rates: better response rates
Comparison group to higher HER2 gene expression (lower HER2), p=0.005
  median overall survival (OS): 3 months
Comparison group to lower IL-8 gene expression (higher IL-8), p=0.03
  median overall survival (OS): 3 months
Patients with higher intratumoral HER2 gene expression, p=0.005 vs lower
  median overall survival (OS): 6 months
Patients with lower intratumoral IL-8 gene expression, p=0.03 vs higher
  median overall survival (OS): 6 months
